A short description of series [1]: Particle size of aerosol droplets after nebulizing the aqueous solution. It is filed as physicochemical. The procedure: With the aid of nebulizers the aqueous solution of a cyclised compound of formula I, namely that of the amino acid sequence SEQ ID NO: 1 was transferred into an aerosol. The particle size of the droplets was measured after subjecting the aqueous solution to 3 different nebulizers and is set out in Table II below: […]

For series [2], the system named is sodium ion current in A549 cells (deglycosylated cell surface). Briefly: Patch clamp assay, whole cell mode, on A549 cells deglycosylated with PNGase F. The class given is cell-based, human. Particulars: 240 nM peptide, Eh -100 mV. (In general: In patch-clamp work, channel activity is measured electrically.)
The subject of series [3] is transplanted pig lung. The experiment in a line: Re-implantation of pre-treated non-ischemic donor lungs in recipient pigs. It is filed as in vivo. Particulars: nebulisation 1 mg/kg, 24 h evaluation. Here is the method: After the pre-treatment of the non-ischemic donor lungs with peptide SEQ ID NO:1 from Example 4 the lungs were re-implanted in recipient pigs. Shortly after reperfusion of the transplanted lungs peptide SEQ ID NO: 1 was administered.
A left thoracotomy through the sixth inter costal space was done, the left hilus was prepared. The hemiazygos vein on the left side was dissected and transected, as it is hiding both the left pulmonary artery and the left atrium. After dissection the ligated ends can be pulled to facilitate exposure of the OP field. The […] and bronchus are encircled. Left pneumonectomy was performed using vascular clamps. Immediately before the implantation single intravenous dose of methylprednisolone (500-1000 mg) and a low dose of heparin (100 IU/kg, see above) was applied. The donor lung was then reimplanted using 4-0 PDS for the bronchial anastomosis and 5-0 Prolene for the pulmonary artery and the left atrial anastomosis. In pigs, there is an additional lobe (caval lobe) of the right lung with 2 veins into the left atrium (1 separate vein for the caval lobe, 1 additional vein arising from the trunk of the main right lower lobe vein). […]
The left donor lung was evaluated for an additional period of 24 hours.
The following parameters have been assessed:
Functional assessment of graft function by oxygenation parameters: Arterial blood gas analyses as well as selective blood gas analysis from the left pulmonary veins were performed every 2 hours for 24 h. The respiratory index was calculated: RI=PaO2/FiO2.
Lung compliance was calculated from the pressure and volume data of the anesthesia ventilator. […]
Functional assessment of graft function by hemodynamic measurements (on-line measurements) and pulmonary vascular resistance (PVR): Hemodynamics, including pulmonary artery pressure (PAP) was measured continuously. Cardiac output (CO) was measured by using a Swan-Ganz catheter. Pulmonary vascular resistance is calculated by the following formula: PVR (dynes·[…]·cm−5)=(PAP−LAP)×80/CO.

The values that follow come from patent US12004506B2, “Pharmaceutical composition comprising a cyclic peptide of formula X1-[sequence]-X2 and use for extracorporeal lung treatment” (priority 2013, dated 2024).

Take `C[C@@H]1NC(=O)CNC(=O)[C@H](CCC(=O)O)NC(=O)[C@@H]2CCCN2C(=O)[C@H]([C@@H](C)O)NC(=O)[C@H](CCC(=O)O)NC(=O)[C@H](CCCNC(=N)N)NC(=O)[C@H](CCC(N)=O)NC(=O)CNC(=O)[C@@H](N)CSSC[C@@H](C(=O)O)NC(=O)[C@H](Cc2ccc(O)cc2)NC(=O)[C@H](Cc2c[nH]c3ccccc23)NC(=O)[C@@H]2CCCN2C(=O)[C@H](CCCCN)NC(=O)[C@H](C)NC(=O)[C@H](CCC(=O)O)NC1=O` [SEQ ID NO: 1]: in series [1] (nebulizer Type A), the “Amount of particles with Ø ≤ 5 μm” value was 50% and the Median particle diameter stood at 4.7 μm. Moreover, in series [1] (nebulizer Type B), the “Amount of particles with Ø ≤ 5 μm” value is 70% and the Median particle diameter is 3.3 μm. Besides, in series [1] (nebulizer Type C), the “Amount of particles with Ø ≤ 5 μm” value was found to be 65% and the Median particle diameter is on record as 3.7 μm. The “Whole cell current, no pre-treatment with PNGase F” value in series [2] is reported as 1073.3 ± 15.1 pA. Further, in series [3], the “development of lung oedema” value was “reduced”; the “initial graft function and gas exchange” value was “improved”; the “rate of ischemia reperfusion injury induced malfunction of the transplanted lung” value is “reduced”.
